Measured values: PubChem BioAssay AID248 (DTP/NCI, 2004)
Inconclusive results and toxic doses are left out.

System: L1210 leukemia ip in BDF1 mice, survival T/C
Experiment: NCI In Vivo Anticancer Drug Screen. Data for tumor model L1210 Leukemia (intraperitoneal) in B6D2F1 (BDF1) mice
Conditions: endpoint: mean survival time, higher = longer survival
In short: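 Tumor was transplanted into mice, which were then dosed with test compound or vehicle alone. Survival was recorded for each group, and the treated figure was expressed relative to the control figure.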

[1] = dose: 100.0 mg/kg/injection, schedule: Q01DX001 (ip), vehicle: Klucel (hydroxypropylcellulose) (HPC)
[2] = dose: 100.0 mg/kg/injection, schedule: Q01DX009 (ip), vehicle: Klucel (hydroxypropylcellulose) (HPC)
[3] = dose: 100.0 mg/kg/injection, schedule: Q04DX003 (ip), vehicle: Klucel (hydroxypropylcellulose) (HPC)
[4] = dose: 200.0 mg/kg/injection, schedule: Q01DX001 (ip), vehicle: Klucel (hydroxypropylcellulose) (HPC)
[5] = dose: 200.0 mg/kg/injection, schedule: Q01DX009 (ip), vehicle: Klucel (hydroxypropylcellulose) (HPC)
[6] = dose: 200.0 mg/kg/injection, schedule: Q04DX003 (ip), vehicle: Klucel (hydroxypropylcellulose) (HPC)
[7] = dose: 400.0 mg/kg/injection, schedule: Q01DX001 (ip), vehicle: Klucel (hydroxypropylcellulose) (HPC)
[8] = dose: 400.0 mg/kg/injection, schedule: Q01DX009 (ip), vehicle: Klucel (hydroxypropylcellulose) (HPC)
[9] = dose: 400.0 mg/kg/injection, schedule: Q04DX003 (ip), vehicle: Klucel (hydroxypropylcellulose) (HPC)
[10] = dose: 100.0 mg/kg/injection, schedule: Q01DX001 (ip), vehicle: saline
[11] = dose: 200.0 mg/kg/injection, schedule: Q01DX001 (ip), vehicle: saline
[12] = dose: 100.0 mg/kg/injection, schedule: Q01DX009 (ip), vehicle: saline with Tween-80
[13] = dose: 200.0 mg/kg/injection, schedule: Q01DX009 (ip), vehicle: saline with Tween-80
[14] = dose: 100.0 mg/kg/injection, schedule: Q04DX003 (ip), vehicle: saline with Tween-80
[15] = dose: 200.0 mg/kg/injection, schedule: Q04DX003 (ip), vehicle: saline with Tween-80
[16] = dose: 400.0 mg/kg/injection, schedule: Q04DX003 (ip), vehicle: saline with Tween-80
[17] = dose: 25.0 mg/kg/injection, schedule: Q01DX009 (ip), vehicle: saline
[18] = dose: 12.5 mg/kg/injection, schedule: Q04DX003 (ip), vehicle: saline
[19] = dose: 25.0 mg/kg/injection, schedule: Q04DX003 (ip), vehicle: saline
[20] = dose: 50.0 mg/kg/injection, schedule: Q04DX003 (ip), vehicle: saline
[21] = dose: 100.0 mg/kg/injection, schedule: Q04DX003 (ip), vehicle: saline
[22] = dose: 400.0 mg/kg/injection, schedule: Q01DX009 (ip), vehicle: saline with Tween-80

COC(=O)C1C(C(=O)OC)C2(Cl)C(Cl)=C(Cl)C1(Cl)C2(Br)Br (stereo not drawn)
T/C [1]: 101 % of control
T/C [2]: 104 % of control
T/C [3]: 104 % of control
T/C [4]: 104 % of control
T/C [5]: 101 % of control
T/C [6]: 100 % of control
T/C [7]: 97 % of control
T/C [8]: 97 % of control
T/C [9]: 104 % of control

CNC1(c2ccc(F)cc2)CCCCC1
T/C (dose: 50.0 mg/kg/injection, schedule: Q01DX001 (ip), vehicle: saline): 98 % of control
T/C [10]: 98 % of control

O=[N+]([O-])c1ccc(C2OC3CC4C5CCCC5C3C4O2)cc1 (stereo not drawn)
T/C (dose: 50.0 mg/kg/injection, schedule: Q01DX001 (ip), vehicle: carboxymethylcellulose (CMC)): 87 % of control
T/C (dose: 100.0 mg/kg/injection, schedule: Q01DX001 (ip), vehicle: carboxymethylcellulose (CMC)): 87 % of control
T/C (dose: 200.0 mg/kg/injection, schedule: Q01DX001 (ip), vehicle: carboxymethylcellulose (CMC)): 91 % of control
T/C (dose: 400.0 mg/kg/injection, schedule: Q01DX001 (ip), vehicle: carboxymethylcellulose (CMC)): 91 % of control

NC(=O)CC1=NCCc2ccccc21
T/C [10]: 108 % of control
T/C [11]: 108 % of control

COc1ccc(/C=C2\NC(=O)NC2=O)cc1Br
T/C [2]: 93 % of control
T/C [5]: 96 % of control
T/C [8]: 91 % of control

CCC1=NNC(=O)C1(Br)Br
T/C (dose: 5.0 mg/kg/injection, schedule: Q01DX001 (ip), vehicle: saline): 105 % of control
T/C (dose: 10.0 mg/kg/injection, schedule: Q01DX001 (ip), vehicle: saline): 100 % of control
T/C (dose: 20.0 mg/kg/injection, schedule: Q01DX001 (ip), vehicle: saline): 100 % of control
T/C (dose: 40.0 mg/kg/injection, schedule: Q01DX001 (ip), vehicle: saline): 97 % of control
T/C (dose: 80.0 mg/kg/injection, schedule: Q01DX001 (ip), vehicle: saline): 103 % of control

COC(c1ccccc1)(c1ccccc1)C(C)O (stereo not drawn)
T/C (dose: 50.0 mg/kg/injection, schedule: Q01DX009 (ip), vehicle: saline with Tween-80): 87 % of control
T/C [12]: 97 % of control
T/C [13]: 103 % of control

CNC(=O)Nc1ncnn1Cc1ccccc1
T/C (dose: 100.0 mg/kg/injection, schedule: Q01DX009 (ip), vehicle: saline): 92 % of control
T/C (dose: 200.0 mg/kg/injection, schedule: Q01DX009 (ip), vehicle: saline): 97 % of control

CCCCCCCCP(=O)(CCCCCCCC)C(O)C(Cl)(Cl)Cl (stereo not drawn)
T/C [14]: 91 % of control
T/C [15]: 96 % of control
T/C [16]: 92 % of control

O=P(N1CCOCC1)(N1CC1)N1CC1
T/C (dose: 2.3 mg/kg/injection, schedule: Q01DX015 (ip), vehicle: saline): 103 % of control
T/C (dose: 3.5 mg/kg/injection, schedule: Q01DX015 (ip), vehicle: saline): 108 % of control
T/C (dose: 5.3 mg/kg/injection, schedule: Q01DX015 (ip), vehicle: saline): 114 % of control
T/C (dose: 6.2 mg/kg/injection, schedule: Q01DX001 (ip), vehicle: saline): 105 % of control
T/C (dose: 9.3 mg/kg/injection, schedule: Q01DX001 (ip), vehicle: saline): 107 % of control
T/C (dose: 12.5 mg/kg/injection, schedule: Q01DX009 (ip), vehicle: saline): 196 % of control
T/C (dose: 14.0 mg/kg/injection, schedule: Q01DX001 (ip), vehicle: saline): 112 % of control
T/C (dose: 14.0 mg/kg/injection, schedule: Q01DX015 (ip), vehicle: saline): 210 % of control
T/C (dose: 23.0 mg/kg/injection, schedule: Q01DX015 (ip), vehicle: saline): 246 % of control
T/C [17]: 116 % of control
T/C (dose: 33.0 mg/kg/injection, schedule: Q01DX001 (ip), vehicle: saline): 157 % of control
T/C (dose: 38.0 mg/kg/injection, schedule: Q01DX015 (ip), vehicle: saline): 104 % of control

Cc1cc(Cl)nc2ccc(Cc3ccc4nc(Cl)cc(C)c4c3)cc12
T/C [10]: 91 % of control
T/C [11]: 94 % of control
T/C (dose: 400.0 mg/kg/injection, schedule: Q01DX001 (ip), vehicle: saline): 96 % of control

COc1cc(/C=C/C(=O)O)cc(Br)c1O
T/C [3]: 104 % of control
T/C [6]: 101 % of control
T/C [9]: 103 % of control

NC(N)=N/N=C/c1ccccc1 (tested in a mixture with another compound)
T/C (dose: 12.5 mg/kg/injection, schedule: Q04DX003 (ip), vehicle: acetone): 93 % of control
T/C (dose: 25.0 mg/kg/injection, schedule: Q04DX003 (ip), vehicle: acetone): 96 % of control
T/C (dose: 50.0 mg/kg/injection, schedule: Q04DX003 (ip), vehicle: acetone): 91 % of control

Oc1ccccc1C1=NCCN1
T/C (dose: 50.0 mg/kg/injection, schedule: Q04DX002 (ip), vehicle: Klucel (hydroxypropylcellulose) (HPC)): 102 % of control
T/C (dose: 100.0 mg/kg/injection, schedule: Q04DX002 (ip), vehicle: Klucel (hydroxypropylcellulose) (HPC)): 95 % of control
T/C (dose: 200.0 mg/kg/injection, schedule: Q04DX002 (ip), vehicle: Klucel (hydroxypropylcellulose) (HPC)): 91 % of control

CC(C(=O)N1c2ccccc2Sc2ccccc21)[N+](C)(C)C (stereo not drawn)
T/C [18]: 112 % of control
T/C [17]: 100 % of control
T/C [19]: 98 % of control
T/C (dose: 50.0 mg/kg/injection, schedule: Q01DX009 (ip), vehicle: saline): 102 % of control
T/C [20]: 104 % of control
T/C [21]: 104 % of control

ClCCCN1c2ccccc2CCc2ccccc21
T/C (dose: 100.0 mg/kg/injection, schedule: Q04DX003 (ip), vehicle: acetone): 100 % of control
T/C (dose: 200.0 mg/kg/injection, schedule: Q04DX003 (ip), vehicle: acetone): 100 % of control
T/C (dose: 400.0 mg/kg/injection, schedule: Q04DX003 (ip), vehicle: acetone): 103 % of control

COC(=O)N1CC=CCN1C(=O)OC
T/C [21]: 94 % of control
T/C (dose: 200.0 mg/kg/injection, schedule: Q04DX003 (ip), vehicle: saline): 116 % of control
T/C (dose: 400.0 mg/kg/injection, schedule: Q04DX003 (ip), vehicle: saline): 115 % of control

CCOC(=O)Nc1cccc(O)c1
T/C [12]: 91 % of control
T/C [13]: 103 % of control
T/C [22]: 92 % of control

NC1=NCc2ccccc21
T/C [18]: 102 % of control
T/C [19]: 93 % of control
T/C [20]: 91 % of control

O=NN(CC(=O)O)C(c1ccccc1)(c1ccccc1)c1ccccc1Cl
T/C [3]: 95 % of control
T/C [6]: 93 % of control

CCCSP(=[Se])(CCC)c1ccccc1 (stereo not drawn)
T/C (dose: 25.0 mg/kg/injection, schedule: Q04DX002 (ip), vehicle: saline with Tween-80): 97 % of control
T/C (dose: 50.0 mg/kg/injection, schedule: Q04DX002 (ip), vehicle: saline with Tween-80): 97 % of control
T/C (dose: 100.0 mg/kg/injection, schedule: Q04DX002 (ip), vehicle: saline with Tween-80): 101 % of control

CCN(C(=S)Nc1cccc(OC)c1)c1ccccc1
T/C [2]: 90 % of control
T/C [5]: 94 % of control

FC(F)(F)C(Cl)(Cc1ccc2ccccc2n1)C(F)(F)F
T/C (dose: 50.0 mg/kg/injection, schedule: Q04DX003 (ip), vehicle: saline with Tween-80): 102 % of control
T/C [12]: 105 % of control
T/C [14]: 101 % of control
T/C [13]: 100 % of control
T/C [15]: 102 % of control
T/C [22]: 103 % of control
T/C [16]: 94 % of control

CCN(C(=S)c1ccc(Cl)cc1)c1cccc(C)c1
T/C [1]: 103 % of control
T/C [3]: 94 % of control
T/C [4]: 99 % of control
T/C [6]: 103 % of control
T/C [7]: 94 % of control
T/C [9]: 100 % of control

O=Cc1cc([N+](=O)[O-])ccc1O
T/C (dose: 100.0 mg/kg/injection, schedule: Q01DX001 (ip), vehicle: other): 101 % of control
T/C (dose: 200.0 mg/kg/injection, schedule: Q01DX001 (ip), vehicle: other): 97 % of control
T/C (dose: 400.0 mg/kg/injection, schedule: Q01DX001 (ip), vehicle: other): 103 % of control
